The values that follow come from publication PMC5096949 (Toxicology letters, 2016).

In general, IC50 refers to the concentration at which inhibition is half-maximal. In general, inhibition refers to how much of the control response was suppressed.

In data set [1] the test system is 3T3-L1 cells. In words: 3T3-L1 adipocyte differentiation, Oil Red O staining of lipid accumulation. Format: cell-based, Murine. The note with it: for effect on AEA-mediated adipocyte differentiation (Oil Red O): 10 μM compound, co-treatment with AEA 10 μM, 7 days; for adipocyte differentiation / lipid accumulation (Oil Red O staining): 1, 10, 50 μM for 7 days.
In data set [2] the test system is PPARγ, C/EBPα and FABP4 mRNA expression. Nature of the data set: RT-PCR of adipocyte marker genes in 3T3-L1 cells. Format: cell-based, Murine. Conditions: for effect on AEA-induced adipocyte marker expression: 3T3-L1, 10 μM compound, co-treatment with AEA 10 μM; for PPARγ, C/EBPα and FABP4 mRNA expression: 3T3-L1, 1, 10, 50 μM for 7 days, n = 3.
Data set [3] has as its target T1, Human Recombinant FAAH (fatty acid amide hydrolase) (Homo sapiens, UniProt O00519).
T1 sequence (O00519 1-579): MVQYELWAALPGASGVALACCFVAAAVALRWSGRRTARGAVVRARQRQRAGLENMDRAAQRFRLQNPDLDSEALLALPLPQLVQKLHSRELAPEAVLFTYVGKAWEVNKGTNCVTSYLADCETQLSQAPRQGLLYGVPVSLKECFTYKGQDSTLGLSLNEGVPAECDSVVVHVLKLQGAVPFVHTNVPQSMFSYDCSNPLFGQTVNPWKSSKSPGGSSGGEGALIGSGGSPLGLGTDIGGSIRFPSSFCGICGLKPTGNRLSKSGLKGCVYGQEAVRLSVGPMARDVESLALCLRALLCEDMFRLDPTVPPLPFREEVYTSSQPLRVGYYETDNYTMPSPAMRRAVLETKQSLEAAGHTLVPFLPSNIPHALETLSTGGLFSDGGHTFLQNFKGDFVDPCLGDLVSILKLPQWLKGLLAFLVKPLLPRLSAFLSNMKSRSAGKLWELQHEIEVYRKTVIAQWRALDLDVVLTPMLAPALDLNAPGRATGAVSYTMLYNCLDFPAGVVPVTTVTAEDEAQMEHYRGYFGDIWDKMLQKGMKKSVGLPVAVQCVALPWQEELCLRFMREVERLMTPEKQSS
Nature of the data set: FAAH inhibition, fluorimetric assay with OMP substrate, recombinant enzyme. Format: biochemical. The note with it: for activity / potency towards FAAH (in words): recombinant FAAH.

For data set [4], the target named is T2, Human Recombinant AADAC (arylacetamide deacetylase) (Homo sapiens, UniProt P22760).
T2 sequence (P22760 1-399): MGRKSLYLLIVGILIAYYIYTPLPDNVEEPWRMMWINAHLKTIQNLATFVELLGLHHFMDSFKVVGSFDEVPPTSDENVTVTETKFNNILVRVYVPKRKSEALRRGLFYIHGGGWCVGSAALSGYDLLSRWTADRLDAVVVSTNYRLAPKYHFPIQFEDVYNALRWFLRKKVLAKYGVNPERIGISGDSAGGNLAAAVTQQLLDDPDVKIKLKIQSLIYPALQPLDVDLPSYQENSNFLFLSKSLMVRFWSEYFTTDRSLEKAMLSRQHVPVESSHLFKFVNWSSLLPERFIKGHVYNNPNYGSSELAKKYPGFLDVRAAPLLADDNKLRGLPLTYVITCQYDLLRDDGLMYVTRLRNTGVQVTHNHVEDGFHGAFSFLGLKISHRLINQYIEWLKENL
Nature of the data set: Esterase inhibition, fluorimetric assay with CMNA substrate. Format: biochemical.

In data set [5] the target is T3, Human Recombinant hCE2 (carboxylesterase 2) (Homo sapiens, UniProt O00748).
T3 sequence (O00748 27-559): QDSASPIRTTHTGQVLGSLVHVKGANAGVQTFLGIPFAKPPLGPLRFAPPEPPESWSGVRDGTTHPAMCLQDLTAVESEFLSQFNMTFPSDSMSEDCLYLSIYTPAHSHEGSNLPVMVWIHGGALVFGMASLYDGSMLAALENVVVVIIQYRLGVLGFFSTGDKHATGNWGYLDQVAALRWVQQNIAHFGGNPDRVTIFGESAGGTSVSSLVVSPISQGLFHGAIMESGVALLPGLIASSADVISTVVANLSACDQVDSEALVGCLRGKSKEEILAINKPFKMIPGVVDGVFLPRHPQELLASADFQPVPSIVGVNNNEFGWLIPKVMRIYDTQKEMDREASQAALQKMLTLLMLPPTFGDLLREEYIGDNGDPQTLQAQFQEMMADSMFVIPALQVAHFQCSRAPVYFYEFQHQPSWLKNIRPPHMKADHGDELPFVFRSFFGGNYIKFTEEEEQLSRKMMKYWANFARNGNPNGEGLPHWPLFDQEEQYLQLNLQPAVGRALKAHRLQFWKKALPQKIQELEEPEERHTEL
The description is as above. Format: biochemical.

The conditions of data set [6]: human exposure; ref Calafat et al., 2010; Tefre de Renzy-Martin et al., 2014; cited from earlier work.
For data set [7], the target named is T4, Rat Brain Microsomes (FAAH) (Rattus norvegicus, UniProt P97612).
T4 sequence (P97612 1-579): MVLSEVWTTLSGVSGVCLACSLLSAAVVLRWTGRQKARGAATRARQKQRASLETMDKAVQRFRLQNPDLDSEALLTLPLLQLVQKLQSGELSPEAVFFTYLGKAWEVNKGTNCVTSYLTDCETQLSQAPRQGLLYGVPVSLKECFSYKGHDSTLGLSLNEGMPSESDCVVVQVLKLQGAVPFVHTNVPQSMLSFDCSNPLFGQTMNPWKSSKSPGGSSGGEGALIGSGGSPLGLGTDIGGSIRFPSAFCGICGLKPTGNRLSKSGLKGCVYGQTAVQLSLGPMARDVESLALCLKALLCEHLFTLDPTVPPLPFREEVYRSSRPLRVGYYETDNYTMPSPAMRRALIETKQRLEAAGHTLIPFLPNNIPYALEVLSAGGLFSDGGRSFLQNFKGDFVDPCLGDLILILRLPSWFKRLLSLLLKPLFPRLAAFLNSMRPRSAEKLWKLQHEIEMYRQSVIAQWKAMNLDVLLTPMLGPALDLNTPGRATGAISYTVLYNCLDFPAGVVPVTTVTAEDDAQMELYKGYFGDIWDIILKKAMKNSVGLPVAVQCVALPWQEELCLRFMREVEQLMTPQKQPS
Nature of the data set: FAAH inhibition in brain microsomes, OMP hydrolysis.

The target of data set [8] is T5, Human Recombinant hCE1 (carboxylesterase 1) (Homo sapiens, UniProt P23141).
T5 sequence (P23141 18-567): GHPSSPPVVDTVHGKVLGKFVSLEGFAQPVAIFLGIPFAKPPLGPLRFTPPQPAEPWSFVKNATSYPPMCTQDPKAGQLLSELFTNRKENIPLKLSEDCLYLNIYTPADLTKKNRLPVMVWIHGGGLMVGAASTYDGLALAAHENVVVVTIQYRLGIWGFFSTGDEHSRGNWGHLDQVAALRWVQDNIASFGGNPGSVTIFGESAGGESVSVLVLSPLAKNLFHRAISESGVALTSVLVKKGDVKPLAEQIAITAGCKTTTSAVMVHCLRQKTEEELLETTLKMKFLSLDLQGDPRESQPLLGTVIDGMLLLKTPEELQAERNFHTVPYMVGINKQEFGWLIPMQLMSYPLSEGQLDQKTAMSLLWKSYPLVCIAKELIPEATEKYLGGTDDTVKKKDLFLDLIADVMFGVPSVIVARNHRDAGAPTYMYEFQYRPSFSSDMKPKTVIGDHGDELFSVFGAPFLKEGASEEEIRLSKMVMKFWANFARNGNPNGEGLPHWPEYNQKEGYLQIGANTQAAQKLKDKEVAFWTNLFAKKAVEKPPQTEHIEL
Nature of the data set: Esterase inhibition, fluorimetric assay with CMNA substrate. Format: biochemical.

Data set [9] has as its target T6, Mouse Brain Microsomes (FAAH) (Mus musculus, UniProt O08914).
T6 sequence (O08914 1-579): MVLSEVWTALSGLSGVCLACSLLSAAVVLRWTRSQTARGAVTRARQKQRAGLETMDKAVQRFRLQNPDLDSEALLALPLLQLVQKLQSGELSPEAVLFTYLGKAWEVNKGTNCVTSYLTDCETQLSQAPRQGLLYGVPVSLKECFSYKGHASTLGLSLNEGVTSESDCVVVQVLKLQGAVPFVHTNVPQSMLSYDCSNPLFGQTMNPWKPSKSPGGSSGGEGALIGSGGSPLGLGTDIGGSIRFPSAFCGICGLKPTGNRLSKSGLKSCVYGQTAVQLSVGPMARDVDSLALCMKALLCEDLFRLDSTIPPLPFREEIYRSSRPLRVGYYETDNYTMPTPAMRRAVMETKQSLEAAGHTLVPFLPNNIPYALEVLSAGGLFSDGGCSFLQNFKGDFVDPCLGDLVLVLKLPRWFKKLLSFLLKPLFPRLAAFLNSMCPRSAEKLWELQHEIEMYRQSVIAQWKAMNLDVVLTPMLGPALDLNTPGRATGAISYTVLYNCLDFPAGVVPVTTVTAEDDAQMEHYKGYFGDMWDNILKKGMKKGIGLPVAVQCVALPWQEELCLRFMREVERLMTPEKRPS
In words: FAAH inhibition in brain microsomes, OMP hydrolysis.

Molecules are shown by their SMILES. “Also recorded” adds a separate entry of the source. Some results are limits rather than exact numbers.

For `O=C(Nc1ccccc1)N1CCN(Cc2ccc3ccccc3n2)CC1` [PF622, N-phenyl-4-(quinolin-2-ylmethyl)piperazine-1-carboxamide], in data set [1], the “effect on AEA-mediated adipocyte differentiation (Oil Red O)” value was “do not synergize to increase adipocyte differentiation” and the “adipocyte differentiation / lipid accumulation (Oil Red O staining)” value is given as “had no effects at any of the doses tested”.
Turning to `CCCCC/C=C\C/C=C\C/C=C\C/C=C\CCCC(=O)NCCO` [AEA, arachidonoyl ethanolamide, reference compound], the “expression of markers of differentiation” value in data set [2] (3T3-L1, AEA 10 μM, 7 days) was “increased expression of several markers of differentiation (PPARγ and C/EBPα)”.
As for `O=C(OCc1ccccc1)c1ccc([N+](=O)[O-])cc1` [Compound 4], in [3], the “activity / potency towards FAAH (in words)” value is “completely removed potency”.
On the same count and under the same terms, then `CCCCCCCOC(=O)c1ccc(O)cc1` [Compound 6, heptylparaben], with “no change in potency”.
For the compound `CCCCOC(=O)c1ccc(O)cc1` [Butylparaben, butylparaben], the “effect on AEA-induced adipocyte marker expression” value in [2] (7 days) is given as “not significantly changed”. The “PPARγ, C/EBPα and FABP4 mRNA expression” value in data set [2] was “enhanced PPARγ, C/EBPα and FABP4 mRNA expression”. Further, the “time-dependence of FAAH inhibition” value in data set [3] (pre-incubation of enzyme with inhibitor up to 1 h) is on record as “independent on incubation time”. For the same compound, the IC50 in data set [4] is above 10000 nM; in data set [5], above 10000 nM; in data set [7], 1100 nM; in [8] it was above 10000 nM; in data set [9], 1600 nM. Besides, in data set [1], the “effect on AEA-mediated adipocyte differentiation (Oil Red O)” value is recorded as “do not synergize to increase adipocyte differentiation”. Also, in data set [1], the “adipocyte differentiation / lipid accumulation (Oil Red O staining)” value was “dose-dependently enhanced 3T3-L1 adipocyte differentiation”. Besides, the urinary concentrations in [6] was 0.1 to 0.5 µM.
As for `COC(=O)c1ccc(O)cc1` [Methylparaben, methylparaben], the “activity / potency towards FAAH (in words)” value in data set [3] is “completely inactive”.
On the same count and under the same terms, the entry for `O=C(O)c1ccc(O)cc1` [4-HO-benzoate, 4-hydroxybenzoic acid] is “completely inactive”.
As for `NC(=O)c1cccc(-c2cccc(OC(=O)NC3CCCCC3)c2)c1` [URB597, 3′-carbamoyl-[1,1′-biphenyl]-3-yl cyclohexylcarbamate, reference compound], the “effect on AEA-induced adipocyte marker expression” value in [2] (7 days) is on record as “not significantly changed”. The “PPARγ, C/EBPα and FABP4 mRNA expression” value in [2] is “increased PPARγ, C/EBPα and FABP4 mRNA expression”. Moreover, the IC50 in [4] was above 10000 nM; in [5] it was 730 nM; in data set [8], 2200 nM. In data set [1], the “effect on AEA-mediated adipocyte differentiation (Oil Red O)” value was “do not synergize to increase adipocyte differentiation”. Besides, in data set [1], the “adipocyte differentiation / lipid accumulation (Oil Red O staining)” value is “only exposure to 10 μM of URB597 resulted in increased lipid accumulation; also recorded: increased differentiation and only at a concentration of 10 μM, not at 50 μM”. Besides, the OMP hydrolysis remaining entry in [9] (50 nM, mouse brain microsomes) is given as “less than 20%”. The inhibition at 0.05 µM in data set [9] (read-out: inhibition of activity (OMP hydrolysis)) was above 80%.
`O=C(OCC1CCCCC1)c1ccc(O)cc1` [Compound 5]: in data set [3] (FAAH IC50, 5 min pre-incubation), the “decrease in potency relative to benzylparaben” value was 2 fold.
Regarding `O=C(OCc1ccccc1)c1ccccc1` [Compound 3], in data set [3], the “activity / potency towards FAAH (in words)” value is “completely removed potency”.
Consider `COc1ccc(C(=O)OCc2ccccc2)cc1` [Compound 2], for which, in data set [3], the “activity / potency towards FAAH (in words)” value is “completely removed potency”.
